System: TB40-BACKL7-UL32EGFP-UL100mCherry
Assay: Adsorption and penetration of dual fluorescent HCMV particles on HFFs
Type: cell-based, Human cytomegalovirus
Conditions: 100 ng/ml
Description: To distinguish between adsorption and penetration of viral particles the inventors made use of dual fluorescent HCMV TB40-BACKL7-UL32EGFP-UL100mCherry (Sampaio 2013). HFFs and HECs were seeded at a density of 40,000 cells per well on gelatin-coated MIDI plates. Overnight produced cell-free infectious supernatant of the fluorescent virus was pre-incubated with PDGFR-Fcs for 2 h at 37° C. Before addition of the mixture the cells were pre-incubated with MEM for 30 min. […] After fixation with acetone, the EGFP signal of pUL32-EGFP was enhanced using mouse-anti-GFP (clone 3E6, Invitrogen) and Alexa488-anti-mouse (Life Technologies). DAPI (4′,6-diamidino-2-phenylindole) was added to mark the cell nuclei. The number of mCherry and EGFP positive particles which are enveloped was compared to the number of particles which were only green per cell. These […] particles have lost their UL100mCherry containing envelope, presumably by fusion with cellular membranes.
To further investigate, which of the initial steps of infection are blocked, the inventors performed a series of experiments that allowed discriminating between adsorption and penetration. They used the dual fluorescent virus TB40-BACKL7-UL32EGFP-UL100mCherry (Sampaio 2013) as it allows to discriminate between enveloped (EGFP-positive and mCherry positive) and non-enveloped particles (only EGFP positive). […]

Substance: PDGFR-alpha-Fc: recombinant Fc-fusion protein of the PDGFR-alpha extracellular domain, obtained from R&D (6765-PR-050)
- reduction of adsorption on HFFs: 50%
- reduction of penetration of HFFs (less efficient): 75%
